{"source": "paper PMC12505664", "about": "“Enflicoxib for the long-term management of canine osteoarthritis—External validation of a population pharmacokinetic model in dogs with osteoarthritis” (Frontiers in Veterinary Science, 2025)", "key": {"[1]": {"system": "dogs with OA", "assay": "Safety assessment in the field clinical study (hematology, biochemistry, urine, adverse events)", "type": "in vivo, client-owned dogs with OA", "conditions": "6 months weekly treatment", "protocol": "To assess safety, blood samples for hematology and biochemistry, as well as urine samples, were repeated on days 44 and 189. The following hematological and biochemical parameters were determined: red blood cell (RBC) count, white blood cell (WBC) total and differential count, platelet (thrombocyte) count and estimate, hematocrit, hemoglobin, and reticulocytes. Amylase, albumin, alkaline phosphatase, alanine-aminotransferase (ALT), aspartate-aminotransferase (AST), calcium, cholesterol, creatinine, creatine kinase, globulin, glucose, γ-Glutamyltransferase (γ-GT), magnesium, phosphorus, potassium, sodium, total bilirubin, total protein, and urea.\nUrine samples were analyzed for blood/erythrocytes/hemoglobin, glucose, ketone bodies, protein, leukocytes, nitrite, specific weight, pH value, bilirubin, and urobilinogen.\nSafety was also assessed by recording any adverse events (AEs) that occurred during the study, regardless of their nature, severity, or whether they were product-related or not."}, "[2]": {"system": "canine osteoarthritis", "design": "method as in Salichs et al., Vet Rec. 2022", "conditions": "ref Salichs et al., Vet Rec. 2022, cited from earlier work; for Number of animals presenting AEs (%): Emesis or nausea: AEs classified A, B or O; for Emesis and nausea: Number of events: AEs related to the GI system"}, "[3]": {"design": "method as in PMID 34854245", "conditions": "popPK model, cited from earlier work"}, "[4]": {"assay": "Maximum a posteriori Bayesian (MAPB) estimation of individual PK parameters in dogs with OA", "type": "in vivo", "text": "As a similar PK behavior between populations was concluded, the same popPK model could be used, and a Bayesian approach was used for the determination of individual enflicoxib and the pyrazol metabolite exposure in osteoarthritic animals.\nA maximum a posteriori Bayesian (MAPB) estimation using the post hoc subroutine in NONMEM was used to provide the individual PK parameters in osteoarthritic dogs.\nMAPB estimation applied likelihood maximization in the form of minimizing the objective function (minus 2 log likelihood), to estimate individual PK parameters of each dog with OA. In this analysis, the MAPB estimation incorporated both a priori PK information, that is, the established PK model of enflicoxib and the pyrazol metabolite in healthy Beagle dogs, and a posteriori PK data, which corresponds to PK data from osteoarthritic dogs. The individual PK parameters along with individual predicted PK profiles for each dog treated with enflicoxib were calculated by fitting the animal PK dataset, which includes dosing, sampling times, parent and metabolite levels, and covariate information, to the established population enflicoxib and the pyrazol metabolite PK model in healthy Beagle dogs.\nThe maximum a posteriori Bayesian (MAPB) estimation was applied to provide the most likely individual PK profile for each dog with OA, using the “POSTHOC” subroutine and $ESTIMATION command set to MAXEVAL=0 in NONMEM.\nIndividual PK parameters and individual PK profiles of enflicoxib and the pyrazol metabolite were estimated for each dog.\nFinally, the Bayesian approach enabled the estimation of the main individual PK parameters of enflicoxib and the pyrazol metabolite. Using these individual PK parameters, predicted profiles for each animal were estimated, allowing the calculation of the derived exposure parameters, such as Cmax, Cmin, AUCτ, and T1/2 in all treated dogs. The distribution and the mean estimates of enflicoxib and the pyrazol metabolite PK parameters at selected time points are depicted in Supplementary Figures S3, S4, respectively."}, "[5]": {"conditions": "overdose study, repeated weekly administrations, Beagle dogs; cited from earlier work"}, "[6]": {"conditions": "interindividual variability as % CV"}, "[7]": {"conditions": "parent, typical value at 9.9 kg"}, "[8]": {"conditions": "mean across weeks, Bayesian predicted profiles"}}, "note": "Like-named read-outs stand apart in the source and are kept apart here.", "data": [{"compound": "NS(=O)(=O)c1ccc(N2N=C(C(F)(F)F)CC2c2ccc(F)cc2F)cc1", "note": "(stereo not drawn) [Enflicoxib]", "values": [{"measurement": "Incidence and type of adverse events over time", "setting": "[1]", "result": "no tendency to increase over time"}, {"measurement": "Hematological and biochemical parameters", "setting": "[1]; days 44 and 189", "result": "generally within the reference ranges"}, {"measurement": "Number of animals presenting AEs (%): Emesis or nausea", "setting": "[2]; Enflicoxib 2 mg/kg group n=60", "result": "3 (5.0)"}, {"measurement": "Emesis and nausea: Number of events", "setting": "[2]; Enflicoxib 2 mg/kg group n=60", "result": 3}, {"measurement": "Diarrhoea / pasty stools: Duration range", "setting": "[2]; Enflicoxib 2 mg/kg group n=60", "result": "2 to 8", "unit": "days"}, {"measurement": "Diarrhoea / pasty stools: Mean duration", "setting": "[2]; Enflicoxib 2 mg/kg group n=60", "result": 5.6, "unit": "days"}, {"measurement": "Diarrhoea / pasty stools: Number of events", "setting": "[2]; Enflicoxib 2 mg/kg group n=60", "result": 3}, {"measurement": "Diarrhoea / pasty stools: Treatment needed", "setting": "[2]; Enflicoxib 2 mg/kg group n=60", "result": 1}, {"measurement": "Emesis and nausea: Mean duration", "setting": "[2]; Enflicoxib 2 mg/kg group n=60", "result": 3, "unit": "days"}, {"measurement": "Emesis and nausea: Treatment needed", "setting": "[2]; Enflicoxib 2 mg/kg group n=60", "result": 0}, {"measurement": "Number of animals presenting AEs (%): Abdominal pain", "setting": "[2]; Enflicoxib 2 mg/kg group n=60", "result": 0}, {"measurement": "Number of animals presenting AEs (%): Acute renal failure", "setting": "[2]; Enflicoxib 2 mg/kg group n=60", "result": 0}, {"measurement": "Number of animals presenting AEs (%): Apathy", "setting": "[2]; Enflicoxib 2 mg/kg group n=60", "result": "1 (1.7)"}, {"measurement": "Number of animals presenting AEs (%): Constipation", "setting": "[2]; Enflicoxib 2 mg/kg group n=60", "result": 0}, {"measurement": "Number of animals presenting AEs (%): Diarrhoea or pasty stools", "setting": "[2]; Enflicoxib 2 mg/kg group n=60", "result": "4 (6.7)"}, {"measurement": "Number of animals presenting AEs (%): Increased salivation", "setting": "[2]; Enflicoxib 2 mg/kg group n=60", "result": 0}, {"measurement": "Number of animals presenting AEs (%): Polydipsia", "setting": "[2]; Enflicoxib 2 mg/kg group n=60", "result": 0}, {"measurement": "Number of animals presenting AEs (%): Total", "setting": "[2]; Enflicoxib 2 mg/kg group n=60", "result": "6 (10%)"}, {"measurement": "Number of animals presenting AEs (%): Weight loss", "setting": "[2]; Enflicoxib 2 mg/kg group n=60", "result": "1 (1.7)"}, {"measurement": "Emesis and nausea: Duration range", "setting": "[2]; Enflicoxib 2 mg/kg group n=60, upper end one animal", "result": "1 to 6", "unit": "days"}, {"measurement": "Number of animals presenting AEs (%): Emesis or nausea", "setting": "[2]; Enflicoxib 4 mg/kg group n=61", "result": "7 (11.5)"}, {"measurement": "Emesis and nausea: Number of events", "setting": "[2]; Enflicoxib 4 mg/kg group n=61", "result": 9}, {"measurement": "Diarrhoea / pasty stools: Duration range", "setting": "[2]; Enflicoxib 4 mg/kg group n=61", "result": "1 to 4", "unit": "days"}, {"measurement": "Diarrhoea / pasty stools: Mean duration", "setting": "[2]; Enflicoxib 4 mg/kg group n=61", "result": 3, "unit": "days"}, {"measurement": "Diarrhoea / pasty stools: Number of events", "setting": "[2]; Enflicoxib 4 mg/kg group n=61", "result": 7}, {"measurement": "Diarrhoea / pasty stools: Treatment needed", "setting": "[2]; Enflicoxib 4 mg/kg group n=61", "result": 3}, {"measurement": "Emesis and nausea: Duration range", "setting": "[2]; Enflicoxib 4 mg/kg group n=61", "result": "1 to 3", "unit": "days"}, {"measurement": "Emesis and nausea: Mean duration", "setting": "[2]; Enflicoxib 4 mg/kg group n=61", "result": 1.4, "unit": "days"}, {"measurement": "Emesis and nausea: Treatment needed", "setting": "[2]; Enflicoxib 4 mg/kg group n=61", "result": 2}, {"measurement": "Number of animals presenting AEs (%): Abdominal pain", "setting": "[2]; Enflicoxib 4 mg/kg group n=61", "result": 0}, {"measurement": "Number of animals presenting AEs (%): Acute renal failure", "setting": "[2]; Enflicoxib 4 mg/kg group n=61", "result": 0}, {"measurement": "Number of animals presenting AEs (%): Apathy", "setting": "[2]; Enflicoxib 4 mg/kg group n=61", "result": "2 (3.3)"}, {"measurement": "Number of animals presenting AEs (%): Constipation", "setting": "[2]; Enflicoxib 4 mg/kg group n=61", "result": 0}, {"measurement": "Number of animals presenting AEs (%): Diarrhoea or pasty stools", "setting": "[2]; Enflicoxib 4 mg/kg group n=61", "result": "5 (8.2)"}, {"measurement": "Number of animals presenting AEs (%): Increased salivation", "setting": "[2]; Enflicoxib 4 mg/kg group n=61", "result": "1 (1.6)"}, {"measurement": "Number of animals presenting AEs (%): Polydipsia", "setting": "[2]; Enflicoxib 4 mg/kg group n=61", "result": "1 (1.6)"}, {"measurement": "Number of animals presenting AEs (%): Total", "setting": "[2]; Enflicoxib 4 mg/kg group n=61", "result": "12 (19.7)"}, {"measurement": "Number of animals presenting AEs (%): Weight loss", "setting": "[2]; Enflicoxib 4 mg/kg group n=61", "result": 0}, {"measurement": "IIV of CL2/F (apparent clearance of irreversible biotransformation to pyrazol metabolite)", "setting": "[3]; [6]", "result": 49, "unit": "%"}, {"measurement": "IIV of Lag Time (Tlag)", "setting": "[3]; [6]", "result": 68, "unit": "%"}, {"measurement": "IIV of V/F (apparent volume of distribution in the central compartment)", "setting": "[3]; [6]", "result": 94, "unit": "%"}, {"measurement": "IIV of absorption rate (ka)", "setting": "[3]; [6]", "result": 101, "unit": "%"}, {"measurement": "Residual variability", "setting": "[3]; log error model, % CV", "result": 34, "unit": "%"}, {"measurement": "Absorption rate (ka), estimate", "setting": "[3]; parent", "result": 0.220, "unit": "hr – 1"}, {"measurement": "Lag Time (Tlag), estimate", "setting": "[3]; parent", "result": 0.249, "unit": "h"}, {"measurement": "CL1/F = θ5·(WGT/9.9)^0.75, θ5 estimate (apparent clearance to other elimination pathways)", "setting": "[3]; [7]", "result": 0.193, "unit": "L/h"}, {"measurement": "CL2/F = θ6·(WGT/9.9)^0.75, θ6 estimate (apparent clearance of irreversible biotransformation to pyrazol metabolite)", "setting": "[3]; [7]", "result": 0.520, "unit": "L/h"}, {"measurement": "V/F = θ4·(WGT/9.9)^1.0, θ4 estimate (apparent volume of distribution, central compartment)", "setting": "[3]; [7]", "result": 6.59, "unit": "L"}, {"measurement": "Time-dependent pharmacokinetics or over-accumulation", "setting": "[4]; 6 months of weekly treatment", "result": "no evidence of time-dependent pharmacokinetics or over-accumulation"}, {"measurement": "AUCτ", "setting": "[4]; [8]", "result": "3,810 ng/mL·d"}, {"measurement": "Cmin", "setting": "[4]; [8]", "result": "~ 185 ng/mL"}, {"measurement": "Cmax", "setting": "[4]; mean, all weeks of weekly treatment, Bayesian predicted profiles", "result": "≈ 1,173 ng/mL"}, {"measurement": "Time to PK steady-state", "setting": "[4]; weekly treatment", "result": 4, "unit": "weeks"}, {"measurement": "Dose proportionality of pharmacokinetics", "setting": "[5]", "result": "dose-proportional pharmacokinetics"}]}]}
